The nature of this data set: Solubility in water or squalane by visual observation. The format is physicochemical. Also noted: key: ∘: Completely dissolved; x: Separated or precipitated without dissolution. Conditions: 25° C. The method, then: Solubilityies of 1% by weight of components (1) to (5), and those of 0.01% by weight of components (6) and (7) were examined by visual observation of the dissolving states of the components mixed at 25° C. with water or squalane.

`Cc1ccc(Nc2ccc(O)c3c2C(=O)c2ccccc2C3=O)c(S(=O)(=O)[O-])c1.[Na+]` [Purple No.401]: where the note is “0.01% by weight”, the “Solubility in Squalane” value was “x” and the “Solubility in Water” value is “∘”.

For `CC1(C)[C@@H](O[C@H]2O[C@H](C(=O)[O-])[C@@H](O)[C@H](O)[C@H]2O[C@@H]2O[C@H](C(=O)[O-])[C@@H](O)[C@H](O)[C@H]2O)CC[C@]2(C)[C@H]3C(=O)C=C4[C@@H]5C[C@@](C)(C(=O)O)CC[C@]5(C)CC[C@@]4(C)[C@]3(C)CC[C@@H]12.[K+].[K+]` [Dipotassium Glycyrrhizinate], where the note is “1% by weight”, the “Solubility in Squalane” value is “x” and the “Solubility in Water” value was “∘”.

For `CCN(Cc1cccc(S(=O)(=O)[O-])c1)c1ccc(C(=C2C=CC(=[N+](CC)Cc3cccc(S(=O)(=O)[O-])c3)C=C2)c2ccccc2S(=O)(=O)[O-])cc1.[Na+].[Na+]` [Blue No.1], where the note is “0.01% by weight”, the “Solubility in Squalane” value is “x” and the “Solubility in Water” value was “∘”.

These data come from patent publication US20040071747A1, “Cosmetics” (priority 2001, published 2004).
